In one test the test system is A. viscosus biofilm. Description: Single species A. viscosus biofilm assay (Biofilm Eradication Concentration, BEC50). In kind it is cell-based. The conditions noted are these: for BEC50 of Active + 50 ppm TBHQ: active combined with 50 ppm TBHQ; for BEC50 of Active Alone: lowest concentration with greater than 50% reduction in biofilm biomass relative to control, TBHQ tested at 50 ppm. Here is the method:
TBHQ and a series of actives were tested in single species of A. viscosus biofilm assay.

The test system of the next test is common pathogens. Description: Antimicrobial activity relative to known antimicrobial agents. In kind it is cell-based.
For another test, the system named is IL-6. As to the kind of experiment: Anti-inflammatory efficacy in cells triggered by HKPG: IL-6 level. In kind it is cell-based, human. Here is the method:
(§1) The anti-inflammatory efficacy of TBHQ in neat solution against several inflammation cytokines was evaluated. Human fibroblast (HEPM) cells or human macrophage (U937) cells were used in these tests. Inflammation was triggered by Heat Killed P. gingivalis (HKPG). TBHQ at various doses was co-incubated with cells treated with HKPG, and the levels of inflammatory markers were observed.

A further test relates to A. viscosus. Description: Minimum inhibitory concentration (MIC) of TBHQ. In kind it is cell-based.
Another test has as its system IL-1b. As to the kind of experiment: Anti-inflammatory efficacy in cells triggered by HKPG: IL-1b level. The test is classed as cell-based, human. As for the experimental part: as §1
In the next test the test system is PGE2. Description: Anti-inflammatory efficacy in cells triggered by Heat Killed P. gingivalis (HKPG): PGE2 level. The test is classed as cell-based, human. Here is the method:
as §1

Another test relates to TNF-α. Description: Anti-inflammatory efficacy in cells triggered by HKPG: TNF-α level. In kind it is cell-based, human. As for the experimental part: as §1
In another test the test system is F. nucleatum. As to the kind of experiment: Minimum inhibitory concentration (MIC) of TBHQ. The test is classed as cell-based.
For a further test, the system named is P. gingivalis. As to the kind of experiment: Minimum inhibitory concentration (MIC) of TBHQ. The test is classed as cell-based.
Where [1] appears, read: TBHQ 10 ppm, HKPG-treated cells.
Setting [2] is: TBHQ 100 ppm, HKPG-treated cells.

5 compounds from US9119879B2, “Oral care compositions comprising a quinone and a further antimicrobial agent” (Colgate-Palmolive Company, priority 2010, dated 2015) can be followed below.

As to `COc1cc(CCC(=O)CC(=O)CCc2ccc(O)c(OC)c2)ccc1O` [Tetra-hydrocurcumin], in the test on A. viscosus biofilm, the “BEC50 of Active + 50 ppm TBHQ” value is on record as 1.22 ppm and the “BEC50 of Active Alone” value was above 2500 ppm.
Consider `Oc1cc(Cl)ccc1Oc1ccc(Cl)cc1Cl` [Triclosan, reference compound], for which, in the test with A. viscosus biofilm, the “BEC50 of Active + 50 ppm TBHQ” value is below 0.03 ppm and the “BEC50 of Active Alone” value is recorded as 0.49 ppm.
With `CC(C)(C)c1cc(O)ccc1O` [TBHQ, 2-t-butyl-p-hydroquinone], the “antimicrobial activity, times lower than known antimicrobial agent” value is given as 60 times in the test on common pathogens (relative to cetylpyridinium chloride (CPC)) and 20 times in the test with common pathogens (relative to triclosan). Further, the IL-6 in the test with IL-6 (TBHQ 1 ppm, HKPG-treated cells (HKPG alone 1753, untreated 42)) stood at 405 pg/mL; in the test on IL-6 (setting [1]) it was 100 pg/mL; with IL-6 (setting [2]), 23 pg/mL. Further, the MIC in the test with A. viscosus, with F. nucleatum and in the test with P. gingivalis was 62.5 ppm in each case. Moreover, the IL-1b in the test on IL-1b (TBHQ 1 ppm, HKPG-treated cells (HKPG alone 85, untreated 63)) is reported as 88 pg/mL; in the test on IL-1b (setting [1]), 55 pg/mL; with IL-1b (setting [2]) it was 29 pg/mL. The PGE2 level is reported as 1323 pg/mL with PGE2 (TBHQ 0.9 ppm, HKPG-treated cells); 1378 pg/mL with PGE2 (TBHQ 1.8 ppm, HKPG-treated cells); 1327 pg/mL in the test on PGE2 (TBHQ 3.9 ppm, HKPG-treated cells); 1563 pg/mL with PGE2 (TBHQ 7.8 ppm, HKPG-treated cells); 1249 pg/mL with PGE2 (TBHQ 15.6 ppm, HKPG-treated cells); 1124 pg/mL with PGE2 (TBHQ 31.2 ppm, HKPG-treated cells). In addition, the PGE2 level in the test with PGE2 (TBHQ 62.5 ppm, co-incubated with HKPG-treated cells (HKPG alone 1743, untreated 1579)) is recorded as 764 pg/mL. Further, the TNF-α in the test with TNF-α (TBHQ 1 ppm, HKPG-treated cells (HKPG alone 194, untreated 15)) was determined as 198 pg/mL; in the test on TNF-α (setting [1]), 68 pg/mL; in the test with TNF-α (setting [2]), 7 pg/mL. Moreover, the “reduction in biofilm biomass” value in the test with A. viscosus biofilm (TBHQ alone at 12.5 ppm) and in the test with A. viscosus biofilm (TBHQ alone at 50 ppm) was at most 50% each time. Further, the BEC50 result with A. viscosus biofilm (Table 3, TBHQ at 12.5 ppm, alone or with zinc oxide slurry) is recorded as “Not measurable”. Further, the “BEC50 of Active Alone” value with A. viscosus biofilm is on record as “Not measurable”.
With `O=C([O-])CC(O)(CC(=O)[O-])C(=O)[O-].O=C([O-])CC(O)(CC(=O)[O-])C(=O)[O-].[Zn+2].[Zn+2].[Zn+2]` [Zinc Citrate], in the test with A. viscosus biofilm, the “BEC50 of Active + 50 ppm TBHQ” value worked out at 19.5 ppm and the “BEC50 of Active Alone” value is 78.1 ppm.
As to `[Cl][Sn][Cl]` [Stannous chloride], in the test with A. viscosus biofilm, the “BEC50 of Active + 50 ppm TBHQ” value is recorded as 39 ppm and the “BEC50 of Active Alone” value is 156.3 ppm.
